Results from patent publication US12275737B2, “Polymorphs of a kinase inhibitor, pharmaceutical compositions containing such a compound, preparation methods, and applications” (Meryx, Inc., priority 2019, dated 2025).
Where a name gives a salt, the structure may show the parent alone. Read-outs that look alike come from different tables or passages of the source. Each block holds one molecule with its values, some of them ahead of it.

Key:
[1] = Pharmacokinetics after oral capsule in male beagle dogs; format: in vivo; settings: for absorption in the body compared with the free alkali of the compound of Formula I: conclusion from Table 6
Procedure: Nine male beagle dogs are divided into three groups, three in each group. They are each respectively administrated a 5 mg/kg oral capsule (PO) of Crystal Form 1, Crystal Form 2 and free base of the compound of Formula I (the dose is calculated according to the dose of the free base). Blood is collected from the jugular vein before administration and after administration for 15 minutes, 30 minutes, 1 hour, 2 hours, 4 hours, 6 hours, 8 hours, 10 hours, and 24 hours, and the plasma is separated and stored in a refrigerator at −80° C. LC-MS is subsequently used for analysis.

[2] = Determination of crystal form stability; format: physicochemical
[3] = Determination of saturated solubility; format: physicochemical; settings: shaken 4 hours; for saturated solubility: 37° C.
Procedure: An appropriate amount of a sample of the compound is supersaturated in water at a pH of 1-8 and shaken at 37° C. for 4 hours with a shaker. The compound is sampled, centrifuged, then the supernatant is diluted and tested by HPLC. Calculations are compared to an external standard.
The saturated solubility of the compound of Crystal Form 1 and Crystal Form 2 of the compound of Formula I and MRX-2843 free base at 37° C. in different pH values are shown in Table 3.

[4] = 5 mg/kg (as free base), plasma, trihydrochloride
[5] = male, beagle, dog, plasma, po, 5 mg/kg, 5 mg/kg (as free base)
[6] = stored at 40° C./75% RH for 1, 3 and 6 months, trihydrochloride
[7] = pH 2.0, water, trihydrochloride
[8] = pH 3.0, water, trihydrochloride
[9] = pH 4.5, water, trihydrochloride
[10] = pH 6.0, water, trihydrochloride
[11] = pH 6.8, water, trihydrochloride
[12] = pH 7.4, water, trihydrochloride
[13] = pH 8.0, water, trihydrochloride
[14] = 5 mg/kg (as free base), plasma, listed as Free base of the compound of Formula I

Cmax [1, 4]: 133 ng/mL | absorption in the body compared with the free alkali of the compound of Formula I ([1]; 5 mg/kg): better absorbed | AUC(0-inf) [1, 5]: 1620 ng·h/mL | AUC(0-t) [1, 5]: 1400 ng·h/mL | Tmax ([1]; male, beagle, dog, plasma, po, 5 mg/kg, 5 mg/kg (as free base), plasma, read-out: Tmax): 2.67 h | crystal form after storage ([2]; stored at 25° C./60% RH for 1, 3 and 6 months): remains unchanged | crystal form after storage [2, 6]: remains unchanged | saturated solubility [3, 7]: 489.60 mg/mL | saturated solubility [3, 8]: 522.25 mg/mL | saturated solubility [3, 9]: 513.40 mg/mL | saturated solubility [3, 10]: 460.64 mg/mL | saturated solubility [3, 11]: 554.17 mg/mL | saturated solubility [3, 12]: 494.83 mg/mL | saturated solubility [3, 13]: 562.59 mg/mL | solubility at 4 h ([3]; water, 37 °C, pH 1, simulated gastric fluid, thermodynamic from solid, pH 1.0, water): 587 mg/mL
Structure (SMILES): CN1CCN(Cc2ccc(-c3cn([C@H]4CC[C@H](O)CC4)c4nc(NCCC5CC5)ncc34)cc2)CC1 [Crystal Form 1, trihydrochloride]

AUCInf [1, 4]: 1,530 h * ng/mL | AUClast [1, 4]: 1,323 h * ng/mL | Cmax [1, 4]: 125 ng/mL | Tmax [1, 4]: 2.00 h | absorption in the body compared with the free alkali of the compound of Formula I ([1]; 5 mg/kg): better absorbed | crystal form after storage ([2]; stored at 5° C. for 18 and 24 months): remains unchanged | crystal form after storage ([2]; stored at 25° C./60% RH for 1, 3, 6, 9, 12, 18 and 24 months): remained unchanged | crystal form after storage [2, 6]: unchanged | saturated solubility ([3]; pH 1.0, water, trihydrochloride): 535.05 mg/mL | saturated solubility [3, 7]: 531.72 mg/mL | saturated solubility [3, 8]: 512.80 mg/mL | saturated solubility [3, 9]: 527.84 mg/mL | saturated solubility [3, 10]: 546.95 mg/mL | saturated solubility [3, 11]: 557.34 mg/mL | saturated solubility [3, 12]: 516.01 mg/mL | saturated solubility [3, 13]: 479.26 mg/mL
Structure (SMILES): CN1CCN(Cc2ccc(-c3cn([C@H]4CC[C@H](O)CC4)c4nc(NCCC5CC5)ncc34)cc2)CC1 [Crystal Form 2, trihydrochloride]

AUCInf [1, 14]: 1,318 h * ng/mL | AUClast [1, 14]: 1,169 h * ng/mL | Cmax [1, 14]: 285 ng/mL | Tmax [1, 14]: 3.33 h | saturated solubility ([3]; pH 1.0, water): 301.086 mg/mL | saturated solubility ([3]; pH 2.0, water): 3.110 mg/mL | saturated solubility ([3]; pH 3.0, water): 1.516 mg/mL | saturated solubility ([3]; pH 4.5, water): 2.034 mg/mL | saturated solubility ([3]; pH 6.0, water): 0.018 mg/mL | saturated solubility ([3]; pH 6.8, water): 0.008 mg/mL | saturated solubility ([3]; pH 7.4, water): 0.007 mg/mL | saturated solubility ([3]; pH 8.0, water): 0.008 mg/mL
Structure (SMILES): CN1CCN(Cc2ccc(-c3cn([C@H]4CC[C@H](O)CC4)c4nc(NCCC5CC5)ncc34)cc2)CC1 [MRX-2843 free base, reference compound]
